Assay [1] relates to PC3 prostate cancer cell line. The assay can be described thus: Anti-proliferative activity versus PC3 cells in MTS assay. It counts as cell-based. A general note: Formazan colour is commonly taken as a measure of viable cells.
For another assay, the system named is PC3 cells. The settings on record: cited from earlier work.

SMILES strings stand for the structures. Where two headings read alike, the source gives them in different places.

A word on the IC50: it is the concentration needed to halve the response being measured. In the case of `COc1cccc2c1C(=O)c1c(O)c3c(c(O)c1C2=O)C[C@@](O)(C(=O)CO)C[C@@H]3O[C@H]1C[C@H](N)[C@H](O)[C@H](C)O1` [Doxorubicin], in assay [1] (Homo sapiens, PC-3, read-out: IC50, viability in prostate cancer cell line PC3), the half-inhibitory concentration (IC50) was determined as 2.8 ± 0.8 µM.

For `CC1CCN(CC[C@H]2CCCN2S(=O)(=O)c2cccc(O)c2)CC1` [SB-269970], the IC50 in assay [1] (read-out: IC50, viability in prostate cancer cell line PC3, MTS assay, triplicate) was 52.1 ± 6.5 µM. In the assay with PC3 cells, the “effect on PC3 cells” value was “inhibited proliferation and induced apoptosis in PC3 cells”.

Values taken from publication PMC13220710 (Bioorganic & medicinal chemistry letters, 2025).
